Results published in ChEMBL document CHEMBL1201862, “PubChem BioAssay data set” (2004).
Activity calls are given as the source filed them.

Assays:
[1] = tested on: Streptococcus sp. 'group A'; test: growth inhibition of control SK(-) GAS strain, dose response, counter-screen for streptokinase expression inhibitor project, luminescence, kanamycin, BacTiterGlo, confirmation (AID 1900); type: functional, organism-based
Streptokinase A = biological target: T1, Streptokinase A (Streptococcus pyogenes serotype M1, UniProt P10520); test: S. pyogenes streptokinase expression inhibitors, potency, dose response, plasminogen activation absorbance, OD405 (AID 1914); type: functional, Streptococcus pyogenes M1 GAS;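 further: secreted streptokinase activity via plasminogen activation per viability signal from cell pellet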
T1 sequence (P10520 whole entry): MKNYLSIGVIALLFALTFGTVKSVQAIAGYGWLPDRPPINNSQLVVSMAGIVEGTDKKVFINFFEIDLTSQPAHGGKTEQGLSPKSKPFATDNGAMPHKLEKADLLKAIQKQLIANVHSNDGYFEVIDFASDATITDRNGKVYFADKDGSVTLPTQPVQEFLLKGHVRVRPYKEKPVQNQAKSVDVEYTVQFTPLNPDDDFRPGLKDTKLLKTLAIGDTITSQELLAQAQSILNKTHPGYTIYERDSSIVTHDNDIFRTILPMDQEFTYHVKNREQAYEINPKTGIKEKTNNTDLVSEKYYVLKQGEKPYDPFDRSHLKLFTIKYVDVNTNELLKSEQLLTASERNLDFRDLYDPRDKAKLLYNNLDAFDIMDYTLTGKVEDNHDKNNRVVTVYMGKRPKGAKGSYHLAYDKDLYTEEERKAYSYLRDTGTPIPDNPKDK

[2] = inhibitors of intracellular T. cruzi replication, confirmation, NIH3T3 host cells, beta-gal luminescence (AID 2044); type: functional, cell-based;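 further: intracellular parasites grown in NIH/3T3 mouse fibroblasts as host cells; luminescent beta-galactosidase reporter signal from transgenic T. cruzi replicating inside host cells; inhibitors lower the luminescence signal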
[3] = cytotoxicity toward NIH3T3 fibroblasts, dose response, counter-screen, cell-based, ATP luminescence, mouse fibroblasts (AID 2010); type: functional;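 further: cells exposed to compound for about 90 hours before reading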
Streptococcus = test: Group A Streptococcus viability loss, dose response, counter-screen for streptokinase expression inhibitor project, luminescence, BacTiterGlo (AID 1915); type: functional, organism-based;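 further: potency for reduction of bacterial viability or growth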
[4] = A549 cell cytotoxicity, dose response, cytotoxicity control, plate reader, cherry-pick, antagonist series (AID 743412); type: functional, cell-based
[5] = HepG2 cell cytotoxicity, dose response, cytotoxicity control, plate reader, cherry-pick, antagonist series (AID 743416); type: functional, cell-based
[6] = HEK293 cell cytotoxicity, dose response, cytotoxicity control, plate reader, cherry-picked samples (AID 743446); type: functional, cell-based
[7] = intracellular Trypanosoma cruzi inhibitors in host cells – cell-based, plate reader, cherry-pick samples, set 3, dose response (AID 651818); type: functional;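 further: compounds incubated with infected cells for about four days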
[8] = growth suppression of PTEN-null colon cells, dose response, cell-based, HCT116 PTEN knockout (AID 1047); type: functional;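 further: HCT116 colon tumor cells with PTEN knocked out; cells exposed to compound for 60 hours before readout; potency for loss of cell viability measured by luminescence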
[9] = growth suppression of beta-catenin-knockout colon cells, dose response, cell-based, HCT116, human colon tumor (AID 1045); type: functional;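 further: HCT116 colon tumor cells with beta catenin knocked out; cells exposed to compound for 60 hours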
[10] = THP-1 cell cytotoxicity, dose response, cytotoxicity control for Vif-APOBEC3G degradation inhibitor project, THP-1 cells (AID 1117359); type: functional; settings: Human immunodeficiency virus 1, THP-1
[11] = biological target: FAD-linked sulfhydryl oxidase ALR (Homo sapiens, UniProt P55789); test: inhibitors of human ALR sulfhydryl oxidase, dose response, biochemical, H2O2 detection, luminescence, cherry-pick (AID 493248)
[12] = biological target: T2, Replicative DNA helicase DnaB (Mycobacterium tuberculosis, UniProt P9WMR3); test: DnaB intein splicing inhibitors, dose response, biochemical, cell-free fluorescence (AID 449749); type: functional
T2 sequence (P9WMR3 whole entry): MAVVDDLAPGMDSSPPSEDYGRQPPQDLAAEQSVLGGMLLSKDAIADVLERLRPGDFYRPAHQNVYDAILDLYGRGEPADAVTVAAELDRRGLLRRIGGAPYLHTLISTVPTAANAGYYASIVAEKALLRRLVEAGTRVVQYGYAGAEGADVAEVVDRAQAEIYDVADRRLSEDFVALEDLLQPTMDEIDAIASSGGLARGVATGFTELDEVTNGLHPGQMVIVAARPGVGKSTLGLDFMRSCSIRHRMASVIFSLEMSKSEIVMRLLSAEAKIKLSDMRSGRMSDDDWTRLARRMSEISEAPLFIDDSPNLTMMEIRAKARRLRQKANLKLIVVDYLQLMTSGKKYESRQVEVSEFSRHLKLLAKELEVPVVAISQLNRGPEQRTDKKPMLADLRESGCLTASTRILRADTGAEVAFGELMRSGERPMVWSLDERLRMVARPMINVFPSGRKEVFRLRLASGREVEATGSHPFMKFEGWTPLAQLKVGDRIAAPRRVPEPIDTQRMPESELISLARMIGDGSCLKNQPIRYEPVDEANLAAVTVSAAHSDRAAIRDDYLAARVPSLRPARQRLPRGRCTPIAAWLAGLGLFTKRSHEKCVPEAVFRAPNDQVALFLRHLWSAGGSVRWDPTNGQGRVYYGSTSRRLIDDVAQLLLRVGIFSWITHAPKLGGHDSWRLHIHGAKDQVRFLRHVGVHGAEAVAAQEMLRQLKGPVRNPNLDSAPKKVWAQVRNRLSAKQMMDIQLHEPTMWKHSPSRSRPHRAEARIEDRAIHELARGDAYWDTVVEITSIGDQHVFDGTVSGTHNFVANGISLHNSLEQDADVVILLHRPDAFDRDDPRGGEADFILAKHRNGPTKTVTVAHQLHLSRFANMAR

Protein RecA = biological target: T3, Protein RecA (Mycobacterium tuberculosis, UniProt P9WHJ3); test: Fluorescence Cell-Free Homogeneous Dose Retest to Identify Inhibitors of RecA-Intein Splicing Activity. [Related pubchem assays (depositor defined):AID2097, AID2223, AID489010, AID492950]; type: functional
T3 sequence (P9WHJ3 whole entry): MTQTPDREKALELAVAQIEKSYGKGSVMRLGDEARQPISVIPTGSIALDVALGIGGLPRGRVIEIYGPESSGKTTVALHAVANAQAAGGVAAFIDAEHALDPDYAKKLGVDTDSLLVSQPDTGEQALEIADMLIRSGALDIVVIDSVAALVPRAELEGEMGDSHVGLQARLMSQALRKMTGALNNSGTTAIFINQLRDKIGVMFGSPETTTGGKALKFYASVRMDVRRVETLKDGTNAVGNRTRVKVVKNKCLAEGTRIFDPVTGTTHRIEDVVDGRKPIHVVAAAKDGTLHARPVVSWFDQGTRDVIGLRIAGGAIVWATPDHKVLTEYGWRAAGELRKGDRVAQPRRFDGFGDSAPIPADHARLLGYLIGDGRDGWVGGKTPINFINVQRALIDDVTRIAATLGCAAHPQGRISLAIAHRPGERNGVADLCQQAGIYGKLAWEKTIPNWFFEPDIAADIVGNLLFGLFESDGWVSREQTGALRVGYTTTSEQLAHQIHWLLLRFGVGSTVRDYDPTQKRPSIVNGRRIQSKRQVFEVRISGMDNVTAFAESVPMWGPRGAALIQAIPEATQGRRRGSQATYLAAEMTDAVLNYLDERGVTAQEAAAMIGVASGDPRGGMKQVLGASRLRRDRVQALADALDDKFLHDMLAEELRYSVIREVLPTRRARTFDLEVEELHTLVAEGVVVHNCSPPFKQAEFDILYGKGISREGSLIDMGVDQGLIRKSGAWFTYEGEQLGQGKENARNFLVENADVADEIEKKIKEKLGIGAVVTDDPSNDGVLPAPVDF

Leucine aminopeptidase = biological target: T4, Leucine aminopeptidase (Plasmodium falciparum 3D7, UniProt Q8IL11); test: P. falciparum M17LAP inhibitors, primary screen, biochemical, fluorogenic H-Leu-NHMec substrate, 1536-well (AID 1619); type: functional
T4 sequence (Q8IL11 whole entry): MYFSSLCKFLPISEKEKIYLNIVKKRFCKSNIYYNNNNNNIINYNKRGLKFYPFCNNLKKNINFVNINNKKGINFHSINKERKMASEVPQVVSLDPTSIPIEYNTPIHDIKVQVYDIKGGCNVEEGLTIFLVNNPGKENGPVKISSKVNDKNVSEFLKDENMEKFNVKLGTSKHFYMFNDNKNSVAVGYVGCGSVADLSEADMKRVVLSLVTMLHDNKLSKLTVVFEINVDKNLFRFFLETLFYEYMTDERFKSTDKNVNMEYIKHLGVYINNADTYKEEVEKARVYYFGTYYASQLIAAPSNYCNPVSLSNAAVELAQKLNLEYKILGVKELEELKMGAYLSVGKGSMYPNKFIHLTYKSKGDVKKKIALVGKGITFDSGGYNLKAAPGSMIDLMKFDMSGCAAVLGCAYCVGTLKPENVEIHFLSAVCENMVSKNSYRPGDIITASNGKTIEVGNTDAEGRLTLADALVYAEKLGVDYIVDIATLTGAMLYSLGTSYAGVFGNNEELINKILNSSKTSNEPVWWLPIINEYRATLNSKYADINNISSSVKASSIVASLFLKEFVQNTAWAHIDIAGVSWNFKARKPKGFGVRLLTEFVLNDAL

Nonstructural protein 1 = Nonstructural protein 1 (Influenza A virus, UniProt Q194T2); type: functional, Influenza A virus (A/California/07/2009(H1N1))
INS1 = test: beta cell apoptosis inhibitors, cytokine rescue, dose response, luminescence, retest (AID 449756); type: functional, cell-based; settings: Rattus norvegicus;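 further: cell death triggered by IL-1 beta plus TNF-alpha plus IFN-gamma mixture; protective hits raise ATP signal compared with cytokine alone wells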
[13] = Shn3 3'UTR reporter inhibitors, dose response, cell-based, Clone20 osteoblasts, firefly luciferase, cherry-picked (AID 624132); type: functional;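 further: firefly luciferase luminescence from reporter carrying the Shn3 3'UTR in osteoblasts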
[14] = HepG2 cell cytotoxicity, dose response, cytotoxicity control for Shn3 inhibitor project, CellTiter-Glo, cherry-picked (AID 624134); type: functional, cell-based
[15] = control 3'UTR Renilla luciferase suppression, dose response, counter-screen for Shn3 inhibitor project, cell-based, Clone20-Shn3RL, cherry-picked (AID 624133); type: functional
BJ [16] = test: cytotoxicity toward BJ-TERT fibroblasts, dose response, cell-based, RAS-independent, luminescence (AID 1933); type: functional; settings: Homo sapiens
BJ [17] = test: cells; type: functional, cell-based; settings: Homo sapiens
BJ [18] = test: cytotoxicity toward BJ-TERT-LT-ST fibroblasts, dose response, cell-based, RAS-independent, luminescence (AID 1935); type: functional; settings: Homo sapiens;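 further: BJ fibroblasts immortalized with TERT plus LT and ST oncogenes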
[19] = cytotoxicity toward DRD oncogenic fibroblasts, dose response, cell-based, non-viral oncogenic, luminescence (AID 1934); type: functional; settings: Homo sapiens

Sequence of FAD-linked sulfhydryl oxidase ALR (P55789 whole entry): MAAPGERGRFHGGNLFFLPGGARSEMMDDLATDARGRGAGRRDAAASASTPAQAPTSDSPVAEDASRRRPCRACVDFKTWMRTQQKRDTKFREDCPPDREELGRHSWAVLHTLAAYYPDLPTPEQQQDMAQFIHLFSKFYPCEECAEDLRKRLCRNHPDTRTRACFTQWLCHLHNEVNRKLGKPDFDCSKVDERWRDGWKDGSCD
Sequence of Nonstructural protein 1 (Q194T2 whole entry): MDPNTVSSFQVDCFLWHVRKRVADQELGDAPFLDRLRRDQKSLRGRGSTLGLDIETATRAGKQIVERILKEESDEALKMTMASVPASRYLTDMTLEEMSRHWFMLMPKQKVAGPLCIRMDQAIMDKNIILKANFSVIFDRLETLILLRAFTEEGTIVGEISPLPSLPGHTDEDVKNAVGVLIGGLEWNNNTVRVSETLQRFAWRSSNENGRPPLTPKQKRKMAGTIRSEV

## CCOc1cccc2sc(Nc3nc4ccc(NC(C)=O)cc4s3)nc12
[1]
  EC50: 23.3 µM (active)
Streptokinase A
  EC50: > 150 µM (not active)
[2]
  EC50: 2.44 µM (active)
[3]
  EC50: > 60 µM (not active)
Streptococcus
  EC50: > 150 µM (not active)
[4]
  AC50: 9.66 µM (active)
[5]
  AC50: 5.46 µM (active)
[6]
  AC50: 24.5 µM (active)

## COc1ccc(S(=O)(=O)Nc2ccc3c(c2)CC(=O)N([C@H](C)CO)C[C@@H](C)[C@@H](CN(C)Cc2ccc(-c4ccccc4)cc2)O3)cc1
[7]
  AC50: 2.35 µM (active)

## Clc1ccc(OCCCNCc2ccccc2)c(Br)c1
[8]
  EC50: 23.1 µM (active)
[9]
  EC50: 17.4 µM (active)

## C[C@@H]1CN([C@@H](C)CO)C(=O)c2cccc(NS(=O)(=O)c3ccccc3)c2O[C@@H]1CN(C)Cc1ccc(-c2ccccc2)cc1
[7]
  AC50: 3.3 µM (active)

## C[C@@H]1CCCCO[C@H](CN(C)C(=O)Nc2cccc3ccccc23)[C@@H](C)CN([C@H](C)CO)C(=O)c2cc(NS(=O)(=O)c3ccc(Cl)cc3)ccc2O1
[7]
  AC50: 3.37 µM (active)

## O=C(NC(Cc1ccccc1)c1nc2ccccc2[nH]1)c1cccc([N+](=O)[O-])c1 (stereo not given)
[10]
  CC50: > 40 µM (active)

## COc1ccccc1C(NC(C)=O)c1c(O)ccc2ccc(O)cc12 (stereo not given)
[11]
  AC50: 2.44 µM (active)
[12]
  AC50: > 380 µM (inactive)
Protein RecA
  EC50: 2.89 µM (active)

## CC1=NNC(=O)C1CCC(=O)N/N=C/C=C/c1ccccc1 (stereo not given)
Leucine aminopeptidase
  IC50: 51.4 µM (active)

## COc1ccc2cnn(CCOc3cc(C)ccc3C(C)C)c(=O)c2c1OC
[10]
  CC50: > 40 µM (active)

## Cc1cccc(N2CCN(C(=O)c3ccccc3NC(=O)C3CC=CCC3C(=O)O)CC2)c1 (stereo not given)
Leucine aminopeptidase
  IC50: 19.1 µM (active)

## CC(=O)c1cccc(NC(S)=NCCC2=CCCCC2)c1
[8]
  EC50: 34 µM (active)
[9]
  EC50: 22.6 µM (active)

## C[C@H]1CN([C@@H](C)CO)C(=O)c2cccc(NC(=O)c3cnccn3)c2O[C@H]1CN(C)Cc1ccc(C(=O)Nc2ccccc2N)cc1
[7]
  AC50: 0.803 µM (active)

## CCN(CC)c1ccc(CNc2nc3ccccc3n2CCN2CCCCC2)cc1
[2]
  EC50: 3.28 µM (active)
[3]
  EC50: 7.56 µM (active)
Nonstructural protein 1
  IC50: 27 µM (active)
[11]
  AC50: 0.68 µM (active)
INS1
  AC50: 7.16 µM (active)
[13]
  AC50: 2.64 µM (active)
[14]
  AC50: 10.2 µM (active)
[15]
  AC50: 1.51 µM (active)

## C[C@@H]1CCCCO[C@H](CN(C)Cc2ccccc2)[C@@H](C)CN([C@H](C)CO)C(=O)c2cc(NC(=O)Nc3ccc(C(F)(F)F)cc3)ccc2O1
[7]
  AC50: 5.97 µM (active)

## C[C@@H]1CN([C@H](C)CO)C(=O)c2cc(NS(=O)(=O)c3ccc(Cl)cc3)ccc2O[C@H]1CN(C)Cc1ccc(Cl)c(Cl)c1
[7]
  AC50: 1.81 µM (active)

## O=C(Nc1ccc(F)cc1F)NC1CCN(S(=O)(=O)c2ccc(F)cc2)CC1
[10]
  CC50: > 40 µM (active)

## CSCCC(NS(=O)(=O)c1ccc2nc(O)c(O)nc2c1)C(=O)O (stereo not given)
Leucine aminopeptidase
  IC50: 6.94 µM (active)

## Cn1c(=O)n(CCc2ccccc2)c(=O)c2c1ncn2Cc1ccccc1
[8]
  EC50: 47.7 µM (active)
[9]
  EC50: 97.4 µM (active)

## CC(C)N(C(=O)COC(=O)c1ccccc1C(=O)c1ccc(Cl)c([N+](=O)[O-])c1)C(C)C
BJ [16]
  EC50: 15.1 µM (active)
BJ [17]
  EC50: > 150 µM (not active)
BJ [18]
  EC50: > 75 µM (inconclusive)
[19]
  EC50: > 150 µM (not active)
[4]
  AC50: 34.2 µM (active)
[5]
  AC50: > 52 µM (inactive)
[6]
  AC50: > 52 µM (inactive)

## Cc1cc(/C=C(\C#N)C(=O)NCc2ccco2)c(C)n1-c1ccc(C(=O)O)cc1
Leucine aminopeptidase
  IC50: 41.1 µM (active)
